Like-named read-outs stand apart in the source and are kept apart here. Values belong to the compound of their own block, whether it stands above or below them.
Legend:
[1] = system: tyrosine-hydroxylase positive (TH+) dopaminergic neurons; experiment: Rat primary midbrain neuron co-culture, alpha-synuclein oligomer challenge with co-dosed/pre-treated compound: TH+ neuron count and neurite length; format: cell-based; conditions: initial study, 40 nM, incubated with alpha-synuclein oligomer (FIG. 4A)
[2] = system: tyrosine-hydroxylase positive (TH+) dopaminergic neurons; experiment: as above; format: cell-based; conditions: for EC50: Rattus norvegicus, Neuron; for TH+ neurite length / TH+ neuron count: absence of any neuronal challenge; for dopamine neuron survival / dopamine neuron neurite length: dose-response experiment; for dopamine neuron survival: alpha-synuclein oligomer challenge (FIG. 2A, 5A); for dopamine neuron neurite length: alpha-synuclein oligomer challenge (FIG. 2B, 5B); for TH+ dopaminergic neuron neurite length / TH-positive dopaminergic neuron viability: immunocytochemistry, alpha-synuclein oligomers 500 nM, 96 hours
Method: (§1) The neuronal challenge was alpha-synuclein oligomers.
(§2) After incubation with alpha-synuclein (α-syn) oligomer, cells were fixed by a solution of 4% paraformaldehyde for 20 min at room temperature, the control conditions were fixed as well following the same procedure. The cells were then permeabilized and non-specific sites were blocked with a solution of phosphate buffered saline containing (PBS) with saponin and FCS for 15 min at room temperature. Cells were incubated with a chicken Anti-Tyrosine Hydroxylase antibody (TH, Abcam, ref 76442), a mouse monoclonal Anti-α-syn P129 antibody (Abcam, ref ab184674) and a Rabbit polyclonal Anti-Miro1 antibody (Sigma, ref: HPA010687) in PBS with saponin and FCS overnight at 4° C. […] Nuclei of cells were labelled by a fluorescent marker (Hoechst solution) in the same solution.
(§3) For each well of culture, pictures were taken using InCell Analyzer™ 2200 (GE Healthcare) with 20× magnification. All the images were taken in the same conditions. The number of dopaminergic neurons (TH), the neurite length of dopaminergic neurons, the signal of phosphorylated 129 of α-syn in dopaminergic neurons and the signal of Miro1 in dopaminergic neurons were automatically evaluated with Developer system analysis (GE Healthcare). All values were expressed as mean±standard error of the mean. Statistical analyses were done on the different conditions (ANOVA followed by Dunnett's test).
(§4) In an initial study, rat primary midbrain neuron co-cultures were incubated with alpha-synuclein oligomer alone, with 400 nM Compound 1, or with positive control.
(§5) Immunocytochemistry was performed for DAPI (nuclear dye), Tyrosine Hydroxylase (TH, a marker for dopaminergic neurons), and phospho-Serine129 alpha-synuclein (pS129 α-syn, a pathogenic form of alpha-synuclein found in Lewy Body pathology) in primary rat midbrain neuron co-cultures. In naive untreated neuronal cultures, healthy TH-positive dopaminergic neurons with elaborate neurites were observed and there was very low pS129 α-synbackground signal. When these neuronal cultures were stressed with toxic exogenous alpha-synuclein oligomers (500 nM, 96 hours), there was a large and statistically significant (1) loss of TH+dopaminergic neuron viability, (2) decrease of TH+dopaminergic neuron neurite length, (3) increase in pS129 α-syn-positive Lewy Body formation, and (4) increase in Miro1 protein levels.

[3] = system: phosphorylated Ser129 alpha-synuclein; experiment: Interventional treatment of rat dopaminergic neurons after alpha-synuclein oligomer injury: phosphorylated Ser129-positive TH+ neurons; format: cell-based; conditions: interventional: 2 days alpha-syn oligomer 500 nM, then 2 more days with compound
Method: (§6) Rat dopaminergic neurons were cultured as previously described (Schinelli, S. et al. Journal of Neurochemistry 1988, 50(6), pages 1900-1907). After 7 days of culture, cells were challenged with alpha-synuclein oligomer (500 nM) for 48 hours. […] By condition, N=6 wells were performed and one plate of 96 wells were performed.
(§7) After 4 days of incubation with α-syn oligomer, cells were fixed by a solution of 4% paraformaldehyde for 20 min at room temperature, the control conditions were fixed as well following the same procedure. The cells were then permeabilized and non-specific sites were blocked with a solution of phosphate buffered saline containing (PBS) with saponin and FCS for 15 min at room temperature. […]
as §3, with “All the images were taken in the same conditions.” left out, “Statistical analyses were done on the different conditions (ANOVA followed by Dunnett's test).” left out

[4] = system: TH+ neurite length of rat dopaminergic neurons; experiment: Interventional treatment of rat dopaminergic neurons after alpha-synuclein oligomer injury: TH+ neurite length; format: cell-based; conditions: interventional: 2 days alpha-syn oligomer, then 2 more days with compound
Method: as §6, §7
as §3, with “All the images were taken in the same conditions.” left out, “Statistical analyses were done on the different conditions (ANOVA followed by Dunnett's test).” left out

[5] = system: phosphorylated serine-129 (pS129) alpha-synuclein; experiment: Rat primary midbrain neuron co-culture, alpha-synuclein oligomer challenge with co-dosed/pre-treated compound: pS129 alpha-synuclein; format: cell-based; conditions: for IC50: Rattus norvegicus, Neuron, read-out: IC50 for lowering pathogenic pS129 alpha-synuclein; for number of pS129+ TH+ neurons: absence of any neuronal challenge; for levels of pathogenic pS129 alpha-synuclein: dose-response experiment, alpha-synuclein oligomer challenge (FIG. 3A, 6A); for pS129 alpha-syn-positive Lewy Body formation / pS129 alpha-syn-positive Lewy Body formation in TH-negative non-dopaminergic neurons: immunocytochemistry; for pS129 alpha-syn-positive Lewy Body formation: alpha-synuclein oligomers 500 nM, 96 hours; for pS129 alpha-syn-positive Lewy Body formation in TH-negative non-dopaminergic neurons: alpha-synuclein oligomers
Method: as §1, §2, §3, §4, §5

Miro1 [6] = experiment: Interventional treatment of rat dopaminergic neurons after alpha-synuclein oligomer injury: Miro1 levels in TH+ neurons; format: cell-based; conditions: 4 days total, doses from 123 nM to 10 μM, compared to no treatment (FIG. 9)
Method: Rat dopaminergic neurons were cultured as previously described (Schinelli, S. et al. Journal of Neurochemistry 1988, 50(6), pages 1900-1907). After 7 days of culture, cells were challenged with alpha-synuclein oligomer (500 nM) for 48 hours. Subsequent to the challenge, cells were subjected to alpha-synuclein (α-syn) oligomer (500 nM)+various concentrations of Compound 1 (0, 14, 41, 123, 370, 1100, 3300, and 10000 nM) for an additional 48 hours. By condition, N=6 wells were performed and one plate of 96 wells were performed.
as §7
as §3, with “All the images were taken in the same conditions.” left out, “Statistical analyses were done on the different conditions (ANOVA followed by Dunnett's test).” left out

Miro1 [7] = experiment: Rat primary midbrain neuron co-culture, alpha-synuclein oligomer challenge with co-dosed/pre-treated compound: Miro1 levels; format: cell-based; conditions: for Miro1 levels: absence of any neuronal challenge; for rescue of Miro1 elevation due to alpha-synuclein oligomer challenge: dose-response experiment (FIG. 3B, 6B); for Miro1 protein levels: immunocytochemistry, alpha-synuclein oligomers 500 nM, 96 hours; for Miro1 release: initial study
Method: as §1, §2, §3, §4, §5

[8] = system: Parkinson's disease subject-derived fibroblast lines; experiment: Ferroptosis assay: human fibroblast survival assay with RSL3 challenge; format: cell-based; conditions: DAPI-positive nuclei count, read-out: EC50 for cell survival (ferroptosis inhibition)
Method: Human fibroblast survival assay. All fibroblasts were obtained from the National Institute of Neurological Disorders and Stroke (NINDS) cell line repository housed at Rutgers University. Compounds were tested in at least one of the following Parkinson's disease subject-derived fibroblast lines: Line ND29802 (LRRK2 G2019S mutation carrier), Line ND40996 (SNCA A53T mutation carrier), or Line ND34263 (GBA N370S mutation carrier).
Human fibroblasts were seeded into 96-well plates on Day 0. On Day 1, fibroblasts were challenged with RSL3 (a ferroptosis activator, CAS No. 1219810-16-8) alone or in co-treatment with test compound administered in dose response. On Day 2, fibroblasts were fixed and stained by the nuclear stain 4′, 6-diamidino-2-phenylindole (DAPI), and the number of DAPI-positive nuclei were counted for each condition using the Yokogawa CQ1 imaging platform to quantify the EC50 for cell survival.

[9] = system: phosphorylated serine-129 (pS129) alpha-synuclein; experiment: Rat primary midbrain neuron co-culture, alpha-synuclein oligomer challenge with co-dosed/pre-treated compound: pS129 alpha-synuclein; format: cell-based; conditions: initial study, 40 nM, incubated with alpha-synuclein oligomer (FIG. 4C)
ferroptosis = conditions: described in Example 2 of PCT/US23/73312 as Compound 4; read-out: ferroptosis inhibitor EC50; cited from earlier work

TH+ neuronal loss induced by alpha-synuclein oligomer [1]: prevented TH+ neuronal loss
EC50 ([2]; alpha-synuclein oligomer challenge, read-out: EC50 for rescue of TH-positive neurite length): < 150 nM
TH+ neurite length [2]: did not affect
TH+ neuron count [2]: did not affect
TH+ neuronal loss induced by alpha-synuclein oligomer ([2]; initial study, 400 nM, incubated with alpha-synuclein oligomer (FIG. 1A)): prevented TH+ neuronal loss
IC50 ([5]; alpha-synuclein oligomer challenge): < 125 nM
Compound: C[C@@H](NC(=O)Cc1ccc(C(F)(F)F)cc1)c1cc2cnn(CC(F)(F)F)c2cn1 [Compound 1, (R)—N-(1-(1-(2,2,2-trifluoroethyl)-1H-pyrazolo[3,4-c]pyridin-5-yl)ethyl)-2-(4-(trifluoromethyl)phenyl)acetamide]
EC50 ([2]; alpha-synuclein oligomer challenge, read-out: EC50 for rescue of TH-positive neuron viability): ~250 nM
dopamine neuron survival [2]: rescued dopamine neuron survival in a dose-dependent fashion
dopamine neuron neurite length [2]: rescued dopamine neuron neurite length in a dose-dependent fashion
TH+ dopaminergic neuron neurite length ([2]; pre-treated 400 nM): rescue of TH+dopaminergic neuron neurite length
TH-positive dopaminergic neuron viability ([2]; pre-treated 400 nM): rescue of TH-positive dopaminergic neuron viability
levels of phosphorylated Ser129-positive TH+ neurons ([3]; doses from 370 nM to 10 μM, compared to no treatment (FIG. 7B)): significantly reduced
TH+ neurite length ([4]; doses of 370 nM, 3.3 µM, or 10 µM, compared to no treatment (FIG. 8B)): significantly restored
number of pS129+ TH+ neurons [5]: did not affect
levels of pathogenic pS129 alpha-synuclein [5]: lowered levels of pathogenic pS129 α-synin a dose-dependent fashion
pS129 alpha-syn-positive Lewy Body formation ([5]; pre-treated 400 nM): decrease/prevention in pS129 α-syn-positive Lewy Body formation
pS129 alpha-syn-positive Lewy Body formation in TH-negative non-dopaminergic neurons ([5]; pre-treatment 1.1 uM): robust decrease/prevention
pathogenic phosphorylated serine-129 (pS129) alpha-synuclein levels ([5]; initial study, 400 nM, incubated with alpha-synuclein oligomer (FIG. 1C)): reduction of pathogenic phosphorylated serine-129 (pS129) alpha-synuclein levels
Miro1 levels in TH+ neurons (Miro1 [6]): statistically significantly reduced
Miro1 levels (Miro1 [7]): did not affect
rescue of Miro1 elevation due to alpha-synuclein oligomer challenge (Miro1 [7]): did not reach statistical significance
Miro1 protein levels (Miro1 [7]; pre-treated 400 nM): decrease in Miro1 protein levels
Miro1 release (Miro1 [7]; 400 nM, incubated with alpha-synuclein oligomer (FIG. 1B)): statistically significant rescue of Miro1 release

Compound: CCN1CCN(c2ccc3nc4ccc(=O)cc-4sc3c2)CC1 [Compound 5, 7-(4-ethylpiperazin-1-yl)-3H-phenothiazin-3-one]
EC50 ([2]; read-out: EC50 for rescue of TH-positive neurite length): < 0.4 nM
EC50 ([2]; read-out: EC50 for rescue of TH-positive neuron viability): ~7 nM
TH+ neurite length [2]: did not affect
TH+ neuron count [2]: did not affect
dopamine neuron survival [2]: rescued dopamine neuron survival in a dose-dependent fashion
dopamine neuron neurite length [2]: rescued dopamine neuron neurite length in a dose-dependent fashion
TH+ dopaminergic neuron neurite length ([2]; pre-treated 40 nM): rescue of TH+dopaminergic neuron neurite length
TH-positive dopaminergic neuron viability ([2]; pre-treated 40 nM): rescue of TH-positive dopaminergic neuron viability
EC50 [8]: 3.6 nM
IC50 [5]: < 0.4 nM
number of pS129+ TH+ neurons [5]: did not affect
levels of pathogenic pS129 alpha-synuclein [5]: lowered levels of pathogenic pS129 α-synin a dose-dependent fashion
pS129 alpha-syn-positive Lewy Body formation ([5]; pre-treated 40 nM): decrease/prevention in pS129 α-syn-positive Lewy Body formation
pS129 alpha-syn-positive Lewy Body formation in TH-negative non-dopaminergic neurons ([5]; pre-treatment 3.7 nM): robust decrease/prevention
pathogenic phosphorylated serine-129 (pS129) alpha-synuclein levels [9]: reduction of pathogenic phosphorylated serine-129 (pS129) alpha-synuclein levels
Miro1 levels (Miro1 [7]): did not affect
rescue of Miro1 elevation due to alpha-synuclein oligomer challenge (Miro1 [7]): did not reach statistical significance
Miro1 protein levels (Miro1 [7]; pre-treated 40 nM): decrease in Miro1 protein levels
Miro1 release (Miro1 [7]; 40 nM, incubated with alpha-synuclein oligomer (FIG. 4B)): statistically significant rescue of Miro1 release

Compound: CC(C)N1[C@@H]2CC[C@H]1CN(c1ccc3nc4ccc(=O)cc-4sc3c1)C2 [Compound 9]
EC50 (ferroptosis): 2.9 nM
levels of phosphorylated Ser129-positive TH+ neurons ([3]; doses of 11 nM, 33 nM, or 100 nM, compared to no treatment (FIG. 10B)): significantly reduced
TH+ neurite length ([4]; doses of 11 nM, 33 nM, or 100 nM, compared to no treatment (FIG. 11B)): significantly restored

Reference: patent US20260174741A1, “METHODS OF REDUCING MIRO1 OR PHOSPHORYLATED ALPHA-SYNUCLEIN” (Acurex Biosciences Corporation, priority 2022, published 2026)
